{"source": "patent US20190125753A1", "about": "“COMPOUNDS AND METHODS FOR INCREASING HEMATOPOIESIS” (University of Southern California, priority 2016, published 2019)", "key": {"[1]": {"target": "T1, interaction between β-catenin and p300 (Mus musculus, UniProt B2RWS6)", "T1 construct": "endogenous in cells; host or cells: mouse myoblast C2C12 cells", "T1 sequence (B2RWS6 2-2412 limits assumed)": "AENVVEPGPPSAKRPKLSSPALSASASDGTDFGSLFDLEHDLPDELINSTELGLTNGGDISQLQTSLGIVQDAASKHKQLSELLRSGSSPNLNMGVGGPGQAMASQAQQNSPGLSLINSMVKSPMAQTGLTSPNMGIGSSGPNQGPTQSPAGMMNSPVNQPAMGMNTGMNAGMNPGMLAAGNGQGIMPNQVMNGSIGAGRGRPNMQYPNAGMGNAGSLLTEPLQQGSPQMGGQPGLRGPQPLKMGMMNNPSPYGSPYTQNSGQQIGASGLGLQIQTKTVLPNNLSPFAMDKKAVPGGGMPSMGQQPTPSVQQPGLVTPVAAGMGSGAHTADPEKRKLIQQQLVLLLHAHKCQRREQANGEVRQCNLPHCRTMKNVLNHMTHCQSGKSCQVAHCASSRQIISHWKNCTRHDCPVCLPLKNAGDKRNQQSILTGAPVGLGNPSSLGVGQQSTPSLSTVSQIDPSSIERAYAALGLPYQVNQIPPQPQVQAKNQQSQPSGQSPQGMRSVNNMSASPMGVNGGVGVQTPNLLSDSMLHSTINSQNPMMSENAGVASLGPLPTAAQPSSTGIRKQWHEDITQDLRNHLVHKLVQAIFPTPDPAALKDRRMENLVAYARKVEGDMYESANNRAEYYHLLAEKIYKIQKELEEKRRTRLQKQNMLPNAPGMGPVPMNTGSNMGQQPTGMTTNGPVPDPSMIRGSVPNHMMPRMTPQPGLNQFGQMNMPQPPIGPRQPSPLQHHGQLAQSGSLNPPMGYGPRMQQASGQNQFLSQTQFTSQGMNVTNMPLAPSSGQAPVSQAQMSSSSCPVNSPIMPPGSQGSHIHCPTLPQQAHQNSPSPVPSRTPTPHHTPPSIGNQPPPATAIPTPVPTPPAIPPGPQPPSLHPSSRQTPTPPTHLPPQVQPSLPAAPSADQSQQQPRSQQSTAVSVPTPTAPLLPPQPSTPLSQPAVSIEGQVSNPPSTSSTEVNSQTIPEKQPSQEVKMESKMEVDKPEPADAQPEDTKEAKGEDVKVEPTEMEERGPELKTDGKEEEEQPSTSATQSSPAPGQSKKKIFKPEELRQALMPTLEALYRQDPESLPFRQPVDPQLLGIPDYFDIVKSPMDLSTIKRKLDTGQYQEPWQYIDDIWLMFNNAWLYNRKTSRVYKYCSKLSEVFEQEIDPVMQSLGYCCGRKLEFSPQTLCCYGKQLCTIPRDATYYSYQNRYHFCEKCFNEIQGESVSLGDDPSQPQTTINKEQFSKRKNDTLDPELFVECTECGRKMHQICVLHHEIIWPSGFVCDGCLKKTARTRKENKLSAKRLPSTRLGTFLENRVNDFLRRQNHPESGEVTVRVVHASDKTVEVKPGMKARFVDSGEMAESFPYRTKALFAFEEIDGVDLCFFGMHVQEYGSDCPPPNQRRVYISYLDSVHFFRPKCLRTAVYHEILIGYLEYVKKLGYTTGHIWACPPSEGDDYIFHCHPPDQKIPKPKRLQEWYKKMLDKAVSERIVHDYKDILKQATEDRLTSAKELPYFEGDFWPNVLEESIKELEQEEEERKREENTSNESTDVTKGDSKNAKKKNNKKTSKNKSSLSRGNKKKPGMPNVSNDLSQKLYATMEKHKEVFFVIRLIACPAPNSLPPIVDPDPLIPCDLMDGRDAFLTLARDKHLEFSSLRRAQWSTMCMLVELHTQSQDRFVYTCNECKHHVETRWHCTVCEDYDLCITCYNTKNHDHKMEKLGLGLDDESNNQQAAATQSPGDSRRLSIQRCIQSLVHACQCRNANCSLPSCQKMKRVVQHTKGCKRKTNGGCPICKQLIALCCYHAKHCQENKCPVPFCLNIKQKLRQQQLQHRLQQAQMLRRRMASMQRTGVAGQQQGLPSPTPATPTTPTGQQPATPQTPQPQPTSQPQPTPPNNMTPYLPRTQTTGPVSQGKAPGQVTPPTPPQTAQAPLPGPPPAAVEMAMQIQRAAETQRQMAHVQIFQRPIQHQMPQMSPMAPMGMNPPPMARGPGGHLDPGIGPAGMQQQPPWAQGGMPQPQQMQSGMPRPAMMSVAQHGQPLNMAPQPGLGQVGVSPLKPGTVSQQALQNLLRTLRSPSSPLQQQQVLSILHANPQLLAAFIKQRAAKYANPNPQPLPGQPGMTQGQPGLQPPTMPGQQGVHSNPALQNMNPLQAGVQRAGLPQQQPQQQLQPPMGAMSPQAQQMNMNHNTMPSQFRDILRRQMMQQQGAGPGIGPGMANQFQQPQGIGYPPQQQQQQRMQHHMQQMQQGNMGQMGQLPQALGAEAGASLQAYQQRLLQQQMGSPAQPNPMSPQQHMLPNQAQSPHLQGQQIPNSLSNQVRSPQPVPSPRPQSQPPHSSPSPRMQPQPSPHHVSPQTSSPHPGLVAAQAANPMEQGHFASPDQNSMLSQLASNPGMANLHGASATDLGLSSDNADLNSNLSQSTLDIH", "assay": "Co-immunoprecipitation (pull-down) in C2Cl2 myoblast cells", "type": "cell-based", "conditions": "C2Cl2 cells treated 24 hours", "method": "YH249 and YH250 were selected from the compounds described herein for further testing. Co-immunoprecipitation (CO-IP) was performed with mouse myoblast C2Cl2 cells. Cells were treated with DMSO (control), or YH249, or YH250 for 24 hours. Cell lyses were pulled down with anti-p300 or anti-CBP antibodies, run on gel and probed with anti-β-catenin antibody. […] A biotinylated version of YH249 (Bio-249) was prepared via the propargyl amide variant. Using a biotin with a linker and a terminal azide residue, we were able to couple the biotin to the YH249 core via a 3+2 cyclization reaction to provide Bio-249. Bio-249 was incubated with lysates from C2Cl2 myoblasts, either in the presence or absence of competitor YH249 for 4 h at 4° C. and then bound to streptavidin agarose beads. After extensive washing the bound proteins were eluted and run out on an […]."}, "mouse bone marrow cells": {"system": "mouse bone marrow cells", "assay": "CFU-S12 assay (treated cells injected to lethally irradiated mice)", "type": "in vivo", "conditions": "cells treated in vitro, 12 days after injection", "from_the_text": "In CFU-S12 assay, cells treated with DMSO or YH250 were recovered from plate and injected to lethally irradiated mice (FIG. 8A), 12 days later, animals were euthanized to check spleen colony formation and spleen weight."}, "cord blood CD34+ cells": {"system": "cord blood CD34+ cells", "assay": "Cord blood CD34+ cell culture, colony morphology at day 8", "type": "cell-based, human", "conditions": "4GF medium, day 8 in culture", "method": "Cord blood CD34^+ cells were cultured in serum free medium with different growth factor combination and different concentrations of YH250. We tested three serum free mediums with either 4 growth factors (4GF, or SF6T: SCF 100 ng/ml; Flt3 100 ng/ml, IL-6 20 ng/ml, and TPO 20 ng/ml) or 6 growth factors (6GF, or SF6TG3: SCF 100 ng/ml; Flt3 100 ng/ml, IL-6 20 ng/ml, TPO 20 ng/ml, GCSF 10 ng/ml, and IL-3 10 ng/ml). YH250 was at 0.3 μM or 1 μM concentration, DMSO, the solvent for YH250, was used as control. Frozen cord blood CD34+ cells were plated into 96 wells with different medium and different growth factors and different compound concentrations. At day 8 in culture, pictures were taken to record the cell growth and colony morphology (FIG. 12A)."}, "cord blood cells": {"system": "cord blood cells", "assay": "Cord blood cells incubated 24 hrs then BMT to transgenic NSG mice", "type": "in vivo, human", "conditions": "10 μM 24 hrs in 4GF or 6GF medium; day 28th post BMT", "method": "To examine p300/β-catenin antagonist YH250 effects on cord blood HSC in BMT, cord blood cells were incubated with 4GF or 6GF medium and 10 μM of YH250 for 24 hrs, then cells were recovered and transplanted to irradiated NOD.Cg-Prkdc^scidIL1rg^tmlwjlTg(CMV-[…], CSF2, KITLG)1Eva, MloySzJ; JAX stock#013062) mice, these are transgenic NSG mice expressing human interleukin-3, human GM-CSF and human stem cell factor. Blood were collected at day 28th post BMT to determine engraftment."}, "7Gy irradiated animals": {"system": "7Gy irradiated animals", "assay": "Peripheral blood count and body weight recovery after 7Gy radiation", "type": "in vivo", "method": "YH250 was then tested for stimulating blood count recovery in irradiated animals. In this experiment, animals received 7Gy whole body radiation and then, either YH250 or DMSO was administrated 24 hours post radiation. Animal body weight and peripheral blood counts were measured to monitor hematopoietic recovery (FIGS. 20A-20B). […] It is worth noting that it is a full lineage blood cell count recovery, including white blood cell (lymphocyte, monocyte and neutrophil), red blood cell and platelet (FIG. 20C). The neutrophil and platelet recovery is most significant."}, "[2]": {"system": "bone marrow stem/progenitor cells", "assay": "HSPC proliferation in 5-FU treated animals", "type": "in vivo, mouse", "conditions": "5-FU 150 mg/kg, YH250 2 mg/kg 24 hours later, analysed one day later", "method": "p300/-catenin antagonists, such as YH250, were also tested for the ability to stimulate bone marrow stem/progenitor cell proliferation in chemotherapeutic drug-treated (e.g., 5-FU) animals. As depicted in FIG. 24A, animals were given PBS or 5-FU (150 mg/kg). 24 hours later, either DMSO or YH250 (2 mg/kg) were administrated to animals. Then, bone marrow cells were isolated one day later for FACS analysis."}, "R1 mESCs": {"system": "R1 mESCs", "assay": "Maintenance of mouse ES cell pluripotency, feeder free, 5 days", "type": "cell-based", "method": "We also determined that IQ-1 indirectly, via binding to the PR72/130 subunit of PP2A, inhibited the p300/β-catenin interaction (Id). Therefore, we anticipated that YH249/250 should also maintain mESC pluripotency in a Wnt dependent manner. To test his, R1 mESCs were cultured under feeder free conditions in the presence or absence of YH249/250 for 5 days. […] Pluripotency markers, Oct4, Nanog, Sox2, SSEA-1 and ALP, were all expressed in the cells treated with Wnt3a and YH250 (FIG. 28b). Moreover, Wnt3a could be replaced with the selective GSK-3 inhibitor CHIR99021, which activates the Wnt signaling pathway (FIG. 28a, lower panel). […] In the event, similarly to ID-8, the combination of Wnt3a and YH249/250 provided morphologically undifferentiated colonies of H9 human embryonic stem cells (hESCs) without FGF and TGF (FIG. 28c). hPSC markers were detected by ALP staining and immunofluorescence (FIG. 28d). In addition to H9 cells, two other hESC lines and a human induced pluripotent stem (iPS) cell line could be also maintained undifferentiated morphology utilizing the same conditions (not shown).\nSpecifically, FIG. 28A-28D, show maintenance of ESC's pluripotency by YH249 and YH250. […] 28A, Typical colony morphologies of RI mouse ES cells cultured 5 days in [upper panel] 3 μM CHIR99021 and 1 μM PD0325901 (2i) medium, basal medium (2i medium without CHIR99021 and PD0325901), basal medium supplemented with 50 ng/ml Wnt3a alone, [middle panel] combination of 50 ng/ml Wnt3a and 2 μM IQ-1, 500 nM YH249 or 200 nM YH250, [lower panel] 3 μM of CHIR99021 alone, and combination of 3 μM CHIR99021 and 500 nM YH249 or 200 nM YH250. […] The blue signal (Wnt3a panels) represents DAPI nuclear staining. Bars indicate […]. […] The blue signal (Wnt3a panels) represents DAP1 nuclear staining. Scale bars indicate 100 am."}, "[3]": {"conditions": "administered 24 hours post radiation"}}}
{"smiles": "COc1cccc(CNC(=O)N2C3CN(Cc4cc(Cl)cc(Cl)c4N(C)C)C(=O)[C@H](Cc4ccc(O)cc4)N3C(=O)CN2C)c1OC", "note": "(stereo partly drawn) [YH250]", "values": [{"measurement": "β-catenin in the p300 pull down lane", "setting": "[1]", "value": "significantly decreased levels of β-catenin"}, {"measurement": "spleen colonies (CFU-S12)", "setting": "mouse bone marrow cells", "value": "larger colonies on spleen"}, {"measurement": "spleen weight (CFU-S12)", "setting": "mouse bone marrow cells", "value": "heavier spleen"}, {"measurement": "colony morphology", "setting": "cord blood CD34+ cells", "value": "more close to “stem cell colony” morphology"}, {"measurement": "human CD34posit cells in blood vs DMSO treated cells", "setting": "cord blood cells", "value": "more human CD34posit cells"}, {"measurement": "blood cell count at nadir points vs DMSO", "setting": "7Gy irradiated animals", "value": "significantly higher"}, {"measurement": "blood count recovery (full lineage)", "setting": "7Gy irradiated animals; [3]", "value": "Accelerated blood count recovery"}, {"measurement": "body weight", "setting": "7Gy irradiated animals; [3]", "value": "very little weight drop"}, {"measurement": "Lin-CD48-CD150+ cell numbers vs DMSO", "setting": "[2]", "value": "significantly higher"}, {"measurement": "lineage negative cell numbers vs DMSO", "setting": "[2]", "value": "significantly higher"}, {"measurement": "pluripotency markers Oct4, Nanog, Sox2, SSEA-1 and ALP", "setting": "R1 mESCs; Wnt3a and 200 nM YH250", "value": "all expressed"}, {"measurement": "mESC pluripotency", "setting": "R1 mESCs; with 50 ng/ml Wnt3a or 3 μM CHIR99021, 500 nM YH249 or 200 nM YH250, 5 days", "value": "maintain pluripotency"}]}
